System: white rabbit
Assay: intraocular pressure-lowering effect of single and combined eye drop administration in white rabbits
Format: in vivo
Details: for IOP: intraocular pressure, 0 h: initial intraocular pressure immediately before application; for IOP: intraocular pressure, 0 h / IOP: intraocular pressure, 0.5 h / IOP: intraocular pressure, 1 h: n = 10, Compound 1 0.4% 50 μL, brimonidine 0.1% 50 μL; for IOP: intraocular pressure, 0.5 h: 0.5 h after application; for IOP: intraocular pressure, 1 h: 1 h after application
Description: To investigate the usefulness of the combination of (S)-(−)-1-(4-fluoro-5-isoquinolinesulfonyl)-2-methyl-1,4-homopiperazine (Compound 1) and an α2 agonist, intraocular pressure-lowering effect was compared between the case where each drug was singly administered to an experimental animal and the case where the drugs were administered to an experimental animal in combination.
(S)-(−)-1-(4-fluoro-5-isoquinolinesulfonyl)-2-methyl-1,4-homopiperazine hydrochloride dihydrate was dissolved in physiological saline, and the solution was then neutralized (pH 6.0) with addition of sodium dihydrogen phosphate and sodium hydroxide to prepare a solution of Compound 1 at a desired concentration.
Commercially available brimonidine (Senju Pharmaceutical Co., Ltd., AIPHAGAN eye drop 0.1%) was directly used.
The intraocular pressure-lowering effect of combined administration of Compound 1 and brimonidine was investigated. As controls, the intraocular pressure-lowering effect of single administration of Compound 1 and that of single administration of brimonidine were further investigated.
Solution of Compound 1: 0.4% solution (amount of application: 50 μL)
Brimonidine: 0.1% eye drop (amount of application: 50 μL)
Experimental animal: white rabbit (sex: male, 10 rabbits per group)
1) One drop of […] oxybuprocaine hydrochloride eye drop (trade name: Benoxil 0.4% solution) was applied to both eyes of an experimental animal for local anesthesia (data were acquired only from the eye to which the eye drop was applied).
2) The intraocular pressure was measured immediately before administration of a solution of a test compound, and the measurement was used as the initial intraocular pressure.
3) The solution of Compound 1 was applied to one eye of the experimental animal, and subsequently the solution of brimonidine was applied to the same eye.
4) One drop of the 0.4% oxybuprocaine hydrochloride eye drop was applied to each eye for local anesthesia 0.5 hours, 1 hour, 2 hours, 3 hours, 4 hours, and 5 hours after the application of the agents, and the intraocular pressure was then measured.
Compound 1 was singly applied, and a test was performed at the same measurement times as in the combined administration test.
A test was performed using the same method as in the single administration test except that the test solution in the single administration of Compound 1 was replaced with that of brimonidine.
The intraocular pressure was represented as an amount of change from the initial intraocular pressure. For statistical processing, Stat Preclinica Client 1.1 with parametric Tukey's multiple comparison was used.

| SMILES | IOP: intraocular pressure, 0 h | IOP: intraocular pressure, 0.5 h | IOP: intraocular pressure, 1 h | intraocular pressure-lowering action 0.5 hours after application of an eye drop (in words) (0.5 hours after application) |
| --- | --- | --- | --- | --- |
| C[C@H]1CNCCCN1S(=O)(=O)c1cccc2cncc(F)c12 [Compound 1, (S)-(−)-1-(4-fluoro-5-isoquinolinesulfonyl)-2-methyl-1,4-homopiperazine] | 26.5 ± 0.8 mmHg | 20.5 ± 1.2 mmHg | 15.9 ± 1.0 mmHg | – |
| Brc1c(NC2=NCCN2)ccc2nccnc12 [Brimonidine, brimonidine] | 24.2 ± 1.3 mmHg | 25.2 ± 0.9 mmHg | 19.4 ± 1.2 mmHg | no intraocular pressure-lowering action |

From patent US20200038397A1, “PHARMACOTHERAPY FOR PREVENTING OR TREATING GLAUCOMA” (KOWA COMPANY, LTD., priority 2014, published 2020)
